Experiments:
[1] = tested on: pulmonary inflammation induced by intranasal lipopolysaccharide (LPS) challenge; test: LPS induced neutrophilia model of lung inflammation and injury (mouse model of ARDS): inflammatory cell counts in BALF; assay type: in vivo, female C57BL6J mice; parameters: key to WBC cell counts, 4 hr Statistical significance / Neutrophils cell counts, 4 hr Statistical significance: * p < 0.05; ** p < 0.01; *** p < 0.001; **** p < 0.0001.; not significant (NS)
Experimental: (§1) Orvepitant was evaluated in the established mouse model of ARDS; the LPS induced neutrophilia model of lung inflammation and injury.
(§2) The effects of vehicle control or orvepitant (250 mg/kg of orvepitant maleate anhydrous crystalline form [Form 1]), dosed orally 1 hour prior to challenge, on pulmonary inflammation induced by a single intranasal challenge dose (10 ug/kg) of either proinflammatory lipopolysaccharide (LPS), or phosphate-buffered saline (PBS) control, was investigated in female C57BL6J mice. Animals were euthanised at either 4 or 24 hours, and inflammatory cell counts and mediators were assayed in bronchoalveolar lavage (BALF) from all animals.
(§3) Key: Bronchoalveolar lavage fluid (BALF); intranasal (in); lipopolysaccharide (LPS); number of female C57BL6J mice/group (n); per os (po); phosphate buffered saline (PBS).

[2] = tested on: proinflammatory mediators in BALF after intranasal lipopolysaccharide (LPS) challenge; test: LPS induced neutrophilia model of lung inflammation and injury (mouse model of ARDS): proinflammatory mediators in BALF; assay type: in vivo, female C57BL6J mice; parameters: key to IL-1β, 4 hr Statistical significance / TNFα, 24 hr Statistical significance / VEGF-A, 4 hr Statistical significance / MCP-1, 4 hr Statistical significance: * p < 0.05; ** p < 0.01; *** p < 0.001; **** p < 0.0001.; not significant (NS)
Experimental: as §1, §2, §3

[3] = 250 mg/kg per os 1 hour prior to LPS intranasal challenge, BALF at 4 hr, vs vehicle/LPS group
[4] = 250 mg/kg per os 1 hour prior to LPS intranasal challenge, BALF at 24 hr, vs vehicle/LPS group
[5] = 250 mg/kg per os, BALF at 4 hr after LPS intranasal challenge, vs vehicle/LPS group
[6] = 250 mg/kg per os, BALF at 24 hr after LPS intranasal challenge, vs vehicle/LPS group

Cc1cc(F)ccc1[C@H]1C[C@@H](N2CCN3C(=O)CC[C@H]3C2)CCN1C(=O)N(C)[C@H](C)c1cc(C(F)(F)F)cc(C(F)(F)F)c1 [orvepitant, 2-(R)-(4-Fluoro-2-methyl-phenyl)-4-(S)-((8aS)-6-oxo-hexahydro-pyrrolo[1,2-a]-pyrazin-2-yl)-piperidine-1-carboxylic acid [1-(R)-(3,5-bis-trifluoromethyl-phenyl)-ethyl]-methylamide]
effect on inflammatory cell migration ([1]; 250 mg/kg orally, ARDS LPS induced neutrophilia model): ameliorated | Neutrophils cell counts, 4 hr Statistical significance [1, 3]: NS | WBC cell counts, 4 hr Statistical significance [1, 3]: NS | Neutrophils cell counts, 24 hr Statistical significance [1, 4]: *** (*** p < 0.001) | WBC cell counts, 24 hr Statistical significance [1, 4]: *** (*** p < 0.001) | effect on range of proinflammatory mediators measured in the BALF ([2]; 250 mg/kg orally, at both 4 and 24 hours, vs vehicle treated LPS-challenged animals): reduced | IL17A, 4 hr % mean reduction [2, 5]: (36%) | IL17A, 4 hr Statistical significance [2, 5]: **** (**** p < 0.0001.) | IL-1β, 4 hr Statistical significance [2, 5]: NS | IL-6, 4 hr % mean reduction [2, 5]: (44%) | IL-6, 4 hr Statistical significance [2, 5]: ** (** p < 0.01) | MCP-1, 4 hr Statistical significance [2, 5]: NS | TNFα, 4 hr % mean reduction [2, 5]: (26%) | TNFα, 4 hr Statistical significance [2, 5]: * (* p < 0.05) | VEGF-A, 4 hr Statistical significance [2, 5]: NS | IL17A, 24 hr % mean reduction [2, 6]: (47%) | IL17A, 24 hr Statistical significance [2, 6]: * (* p < 0.05) | IL-1β, 24 hr % mean reduction [2, 6]: (33%) | IL-6, 24 hr % mean reduction [2, 6]: (39%) | MCP-1, 24 hr % mean reduction [2, 6]: (56%) | MCP-1, 24 hr Statistical significance [2, 6]: ** (** p < 0.01) | TGF-β1, 24 hr % mean reduction [2, 6]: (62%) | TGF-β1, 24 hr Statistical significance [2, 6]: *** (*** p < 0.001) | TNFα, 24 hr Statistical significance [2, 6]: NS | VEGF-A, 24 hr % mean reduction [2, 6]: (32%)

— patent publication US20230190740A1, “AN NK-1 RECEPTOR ANTAGONIST FOR TREATING A DISEASE SELECTING FROM SEPSIS, SEPTIC SHOCK, ACUTE RESPIRATORY DISTRESS SYNDROME (ARDS) OR MULTIPLE ORGAN D[…] (MODS)” (NeRRe Therapeutics Limited, priority 2020, published 2023)
